Measurements as given in the supplement of paper PMC10627819.

What was measured:
S. pneumoniae D39V [1] = experiment: Bliss interaction score (quartile over a dose matrix) (fitness difference); higher = more antagonism (negative = synergy)
Outline: (§1)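 Combination data were used to infer fitness under each single drug. Fitness is the OD595 at entry into stationary phase divided by the robust mean of the plate's no-drug wells, with a cap of 1. The Bliss score is the observed minus the expected product fitness, summarised by quartiles over technical, biological and donor/recipient replicates.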

S. aureus Newman [2] = experiment: as above
Outline: as §1

B. subtilis 168 [3] = experiment: as above
Outline: as §1

S. aureus DSM 20231 = experiment: as above
Outline: as §1

S. pneumoniae D39V [4] = experiment: fitness (endpoint OD595 vs no drug) (fraction); higher = more growth
Outline: (§2)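 Cultures at OD595 0.01 were dispensed into 384-well plates in TSB, LB Lennox or CY and incubated at 37 °C. Every 30 min for 14 h, OD595 was read and corrected by the first reading. Fitness is the optical density at entry into stationary phase relative to the robust mean of no-drug control wells, capped at 1.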

S. aureus Newman [5] = experiment: as above
Outline: as §2

B. subtilis 168 [6] = experiment: as above
Outline: as §2
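For Bliss interaction score (quartile over a dose matrix) in this document: first quartile when negative (synergy) and third quartile when positive (antagonism).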

CC1=C(C(=O)O)N2C(=O)[C@@H](NC(=O)[C@H](N)c3ccccc3)[C@H]2SC1 [Cephalexin] + Cc1ncc([N+](=O)[O-])n1CCO [Metronidazole]
Details | Bliss interaction score
B. subtilis 168 [3] | -0.0395
S. aureus DSM 20231 | 0.0322
S. aureus Newman [2] | 0.0215
S. pneumoniae D39V [1] | 0.132

fitness, one replicate
Details | first compound 0.125 µg/mL | first compound 0.25 µg/mL | first compound 0.5 µg/mL | first compound 1 µg/mL
S. aureus Newman [5], partner 0.781 µg/mL | – | 0.989 | ≥ 1 | ≥ 1
S. aureus Newman [5], partner 1.562 µg/mL | – | ≥ 1 | ≥ 1 | ≥ 1
S. aureus Newman [5], partner 3.124 µg/mL | – | 0.998 | ≥ 1 | ≥ 1
S. pneumoniae D39V [4], partner 1.25 µg/mL | ≥ 1 | 0.989 | ≥ 1 | –
S. pneumoniae D39V [4], partner 2.5 µg/mL | ≥ 1 | ≥ 1 | ≥ 1 | –
S. pneumoniae D39V [4], partner 5 µg/mL | 0.971 | ≥ 1 | ≥ 1 | –

fitness
Details | partner 0.625 µg/mL | partner 1.073 µg/mL | partner 1.25 µg/mL | partner 2.145 µg/mL | partner 2.5 µg/mL | partner 4.29 µg/mL
B. subtilis 168 [6], first compound 0.125 µg/mL | 0.958 | – | 0.936 | – | 0.963 | –
B. subtilis 168 [6], first compound 0.25 µg/mL | 0.94 | – | 0.91 | – | 0.86 | –
B. subtilis 168 [6], first compound 0.5 µg/mL | 0.943 | – | 0.932 | – | 0.926 | –
S. aureus Newman [5], first compound 0.25 µg/mL | 0.962 | – | ≥ 1 | – | ≥ 1 | –
S. aureus Newman [5], first compound 0.5 µg/mL | 0.994 | – | 0.984 | – | ≥ 1 | –
S. aureus Newman [5], first compound 1 µg/mL | ≥ 1 | – | ≥ 1 | – | ≥ 1 | –
S. pneumoniae D39V [4], first compound 4 µg/mL | – | 0.0041 | – | 0.0332 | – | 0.0078
